Measurements from patent publication US8815882B2, “Pyrazole aminopyrimidine derivatives as LRRK2 modulators” (Genentech, Inc., priority 2010, dated 2014).

Molecular target: T1, LRRK2 (Homo sapiens, UniProt Q5S007, G2019S)
T1 construct: purchased Invitrogen PV4882 (lot 567054A)
Test: In Vitro LRRK2 Assay (LabChip 3000, fluorescently-labeled peptide substrate, ATP)
Assay type: biochemical
Details: Table 9; LRRK2 Ki (micromolar); read-out: LRRK2 Ki (KI)
Method in brief: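 Read-out was LabChip capillary electrophoresis, resolving phospho- from non-phospho-peptide by fluorescence intensity. The kinase reaction combined enzyme, ATP, test compound and labeled peptide (4 μM working dilution) for 2 h in darkness before stop solution. Values were reported as Ki, from a tight-binding model with Et, S and Km, or as IC50 or percent inhibition.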

T1 sequence (Q5S007 whole entry G2019S): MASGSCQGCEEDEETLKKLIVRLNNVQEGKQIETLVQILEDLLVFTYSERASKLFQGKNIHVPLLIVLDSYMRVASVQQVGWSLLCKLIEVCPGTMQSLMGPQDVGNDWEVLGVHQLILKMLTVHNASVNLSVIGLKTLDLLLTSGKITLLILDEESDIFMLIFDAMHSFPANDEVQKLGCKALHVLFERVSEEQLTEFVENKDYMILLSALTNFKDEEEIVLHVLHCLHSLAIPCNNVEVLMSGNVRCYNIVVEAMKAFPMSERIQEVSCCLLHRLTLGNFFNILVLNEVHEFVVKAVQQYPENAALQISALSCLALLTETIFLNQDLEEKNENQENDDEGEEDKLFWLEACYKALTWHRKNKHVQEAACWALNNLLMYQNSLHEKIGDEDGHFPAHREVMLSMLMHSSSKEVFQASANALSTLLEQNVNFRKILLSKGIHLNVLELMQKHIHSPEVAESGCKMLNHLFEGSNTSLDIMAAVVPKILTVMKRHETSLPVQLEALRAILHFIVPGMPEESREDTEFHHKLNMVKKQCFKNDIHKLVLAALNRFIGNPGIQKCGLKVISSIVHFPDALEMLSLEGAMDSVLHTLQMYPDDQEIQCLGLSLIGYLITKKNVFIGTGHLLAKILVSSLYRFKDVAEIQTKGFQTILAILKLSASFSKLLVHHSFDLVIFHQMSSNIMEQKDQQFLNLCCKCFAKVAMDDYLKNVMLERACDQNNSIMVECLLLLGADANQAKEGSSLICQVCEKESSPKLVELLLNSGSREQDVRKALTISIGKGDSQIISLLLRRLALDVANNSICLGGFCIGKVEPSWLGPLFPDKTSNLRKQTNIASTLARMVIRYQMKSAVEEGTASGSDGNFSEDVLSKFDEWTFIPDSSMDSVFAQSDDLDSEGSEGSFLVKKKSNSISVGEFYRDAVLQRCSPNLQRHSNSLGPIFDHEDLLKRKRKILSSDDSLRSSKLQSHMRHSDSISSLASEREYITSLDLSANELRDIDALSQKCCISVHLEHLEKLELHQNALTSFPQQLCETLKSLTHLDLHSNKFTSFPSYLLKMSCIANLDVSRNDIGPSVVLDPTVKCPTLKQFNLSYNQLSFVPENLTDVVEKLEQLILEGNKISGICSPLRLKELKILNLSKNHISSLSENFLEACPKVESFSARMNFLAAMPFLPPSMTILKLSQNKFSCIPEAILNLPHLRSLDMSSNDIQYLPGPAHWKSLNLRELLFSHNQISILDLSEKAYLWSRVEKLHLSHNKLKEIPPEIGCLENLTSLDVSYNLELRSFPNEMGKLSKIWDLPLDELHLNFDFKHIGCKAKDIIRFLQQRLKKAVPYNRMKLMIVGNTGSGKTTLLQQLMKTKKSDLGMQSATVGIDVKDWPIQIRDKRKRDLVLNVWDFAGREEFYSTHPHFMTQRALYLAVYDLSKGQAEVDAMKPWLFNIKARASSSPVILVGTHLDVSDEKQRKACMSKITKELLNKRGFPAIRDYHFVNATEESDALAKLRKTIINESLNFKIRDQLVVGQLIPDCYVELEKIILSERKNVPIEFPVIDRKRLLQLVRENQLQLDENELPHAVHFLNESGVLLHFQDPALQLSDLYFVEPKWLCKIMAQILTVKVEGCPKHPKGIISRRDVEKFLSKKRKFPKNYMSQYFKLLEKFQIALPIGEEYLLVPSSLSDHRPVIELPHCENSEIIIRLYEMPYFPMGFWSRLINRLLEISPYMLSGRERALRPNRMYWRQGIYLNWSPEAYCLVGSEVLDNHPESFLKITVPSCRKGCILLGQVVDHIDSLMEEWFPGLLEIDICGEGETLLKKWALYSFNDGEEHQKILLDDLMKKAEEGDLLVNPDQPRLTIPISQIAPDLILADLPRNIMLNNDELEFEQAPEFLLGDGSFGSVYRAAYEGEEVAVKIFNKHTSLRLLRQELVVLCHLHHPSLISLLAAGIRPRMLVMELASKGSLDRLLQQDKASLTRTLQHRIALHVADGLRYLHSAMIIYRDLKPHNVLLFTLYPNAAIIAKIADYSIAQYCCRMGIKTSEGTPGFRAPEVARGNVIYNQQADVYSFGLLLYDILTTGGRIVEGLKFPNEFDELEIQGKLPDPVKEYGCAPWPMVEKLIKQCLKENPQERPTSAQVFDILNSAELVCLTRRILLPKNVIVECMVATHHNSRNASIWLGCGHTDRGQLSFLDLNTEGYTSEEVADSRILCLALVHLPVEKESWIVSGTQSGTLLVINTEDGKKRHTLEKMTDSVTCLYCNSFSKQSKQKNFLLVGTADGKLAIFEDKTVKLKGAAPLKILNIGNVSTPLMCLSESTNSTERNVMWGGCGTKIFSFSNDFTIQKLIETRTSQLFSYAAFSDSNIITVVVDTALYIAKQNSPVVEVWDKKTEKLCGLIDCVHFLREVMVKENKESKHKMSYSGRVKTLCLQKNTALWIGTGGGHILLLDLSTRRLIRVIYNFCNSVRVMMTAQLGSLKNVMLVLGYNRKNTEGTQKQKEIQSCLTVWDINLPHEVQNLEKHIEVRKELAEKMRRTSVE

| SMILES | Ki [nM] |
| --- | --- |
| CCCn1cc(Nc2ncc(C#N)c(NC)n2)c(C)n1 [Example 387, 4-Methylamino-2-(3-methyl-1-propyl-1H-pyrazol-4-ylamino)-pyrimidine-5-carbonitrile] | 5.4 |
| CCNc1nc(Nc2cn(C3COC3)nc2C)ncc1C#N [Example 373, 4-(ethylamino)-2-(3-methyl-1-(oxetan-3-yl)-1H-pyrazol-4-ylamino) pyrimidine-5-carbonitrile] | 22.8 |
| CNc1nc(Nc2cnn(C3CCC(F)(F)CC3)c2C)ncc1C#N [Example 381, 2-(1-(4,4-difluorocyclohexyl)-5-methyl-1H-pyrazol-4-ylamino)-4-(methylamino) pyrimidine-5-carbonitrile] | 11 |
| CCn1cc(Nc2ncc(C#N)c(NC)n2)c(C)n1 [Example 353, 2-(1-ethyl-3-methyl-1H-pyrazol-4-ylamino)-4-(methylamino) pyrimidine-5-carbonitrile] | 36 |
| CCn1ncc(Nc2ncc(C#N)c(NC)n2)c1C [Example 351, 2-(1-ethyl-5-methyl-1H-pyrazol-4-ylamino)-4-(methylamino) pyrimidine-5-carbonitrile] | 9.7 |

Same assay, conditions: Table 10; LRRK2 Ki (micromolar); read-out: LRRK2 Ki (KI)

| SMILES | Ki [nM] |
| --- | --- |
| CNc1nc(Nc2cnn([C@@H](C)C#N)c2C)ncc1C(F)(F)F [Example 415, (S)-2-(5-methyl-4-(4-(methylamino)-5-(trifluoromethyl)pyrimidin-2-ylamino)-1H-pyrazol-1-yl)propanenitrile] | 9.5 |
| CNc1nc(Nc2cnn(C3(C#N)CC3)c2Cl)ncc1C(F)(F)F [Example 422, 1-(5-chloro-4-(4-(methylamino)-5-(trifluoromethyl)pyrimidin-2-ylamino)-1H-pyrazol-1-yl)cyclopropane-carbonitrile] | 2.3 |
| CNc1nc(Nc2cn(C(C)(C)C#N)nc2C)ncc1Cl [Example 417, 2-(4-(5-chloro-4-(methylamino)pyrimidin-2-ylamino)-3-methyl-1H-pyrazol-1-yl)-2-methylpropanenitrile] | 2.1 |
| CCNC(=O)C(C)(C)n1cc(Nc2ncc(C(F)(F)F)c(NC)n2)c(C)n1 [Example 440, N-Ethyl-2-[3-methyl-4-(4-methylamino-5-trifluoromethyl-pyrimidin-2-ylamino)-pyrazol-1-yl]-isobutyramide] | 9.5 |

Same assay, conditions: read-out: LRRK2 Ki (KI), Table 7

| SMILES | Ki [nM] |
| --- | --- |
| COc1nc(Nc2cnn(-c3ccccc3)c2C)ncc1Cl [Example 56, 5-chloro-4-methoxy-N-(5-methyl-1-phenyl-1H-pyrazol-4-yl)pyrimidin-2-amine] | 27 |
| COc1nc(Nc2cnn(-c3ccc(S(C)(=O)=O)cc3)c2C)ncc1Cl [Example 60, 5-chloro-4-methoxy-N-(5-methyl-1-(4-(methylsulfonyl)phenyl)-1H-pyrazol-4-yl)pyrimidin-2-amine] | 15 |

Same assay, conditions: read-out: LRRK2 Ki (KI), Table 8

| SMILES | Ki [nM] |
| --- | --- |
| CCNc1nc(Nc2cn(CC(C)(C)O)nc2C(C)(C)C)ncc1C(F)(F)F [Example 201, 1-(3-tert-butyl-4-(4-(ethylamino)-5-(trifluoromethyl)pyrimidin-2-ylamino)-1H-pyrazol-1-yl)-2-methylpropan-2-ol] | 420 |
| CNc1nc(Nc2cn(C3CN(C(C)C)C3)nc2C)ncc1C(F)(F)F [Example 214, N2-(1-(1-isopropylazetidin-3-yl)-3-methyl-1H-pyrazol-4-yl)-N4-methyl-5-(trifluoromethyl) pyrimidine-2,4-diamine] | 64 |
| CCNc1nc(Nc2cn(C3CCOCC3)nc2C)ncc1C(F)(F)F [Example 159, N4-ethyl-N2-(3-methyl-1-(tetrahydro-2H-pyran-4-yl)-1H-pyrazol-4-yl)-5-(trifluoromethyl) pyrimidine-2,4-diamine] | 3.9 |
| CNc1nc(Nc2cn(C(C)C)nc2C)ncc1Br [Example 121, 5-bromo-N2-(1-isopropyl-3-methyl-1H-pyrazol-4-yl)-N4-methylpyrimidine-2,4-diamine] | 3.1 |
| CNc1nc(Nc2cnn(CC(C)(C)O)c2C(F)(F)F)ncc1C(F)(F)F [Example 197, 2-methyl-1-(4-(4-(methylamino)-5-(trifluoromethyl)pyrimidin-2-ylamino)-5-(trifluoromethyl)-1H-pyrazol-1-yl)propan-2-ol] | 26 |
| CCNc1nc(Nc2cn(CC3(C)COC3)nc2C)ncc1C(F)(F)F [Example 144, N4-ethyl-N2-(3-methyl-1-((3-methyloxetan-3-yl)methyl)-1H-pyrazol-4-yl)-5-(trifluoromethyl) pyrimidine-2,4-diamine] | 0.9 |
| CNc1nc(Nc2cnn(C(F)F)c2C)ncc1C(F)(F)F [Example 106, N2-(1-(difluoromethyl)-5-methyl-1H-pyrazol-4-yl)-N4-methyl-5-(trifluoromethyl) pyrimidine-2,4-diamine] | 1.9 |
| CNc1nc(Nc2cn(-c3ccc(C#N)cc3)nc2C)ncc1C(F)(F)F [Example 148, 4-(3-methyl-4-(4-(methylamino)-5-(trifluoromethyl)pyrimidin-2-ylamino)-1H-pyrazol-1-yl)benzonitrile] | 0.3 |
| CCn1cc(Nc2ncc(Br)c(NC)n2)c(C)n1 [Example 253, 5-Bromo-N2-(1-ethyl-3-methyl-1H-pyrazol-4-yl)-N4-methyl-pyrimidine-2,4-diamine] | 2.2 |
| CNc1nc(Nc2cnn(Cc3cccnn3)c2C)ncc1C(F)(F)F [Example 309, N4-Methyl-N2-(5-methyl-1-pyridazin-3-ylmethyl-1H-pyrazol-4-yl)-5-trifluoromethyl-pyrimidine-2,4-diamine] | 2.8 |
| CCNc1nc(Nc2cn(S(=O)(=O)C(C)C)nc2C)ncc1C(F)(F)F [Example 216, N4-ethyl-N2-(1-(isopropylsulfonyl)-3-methyl-1H-pyrazol-4-yl)-5-(trifluoromethyl) pyrimidine-2,4-diamine] | 3.9 |
| CNc1nc(Nc2cn(C(F)F)nc2C)ncc1C(F)(F)F [Example 105, N2-(1-(difluoromethyl)-3-methyl-1H-pyrazol-4-yl)-N4-methyl-5-(trifluoromethyl) pyrimidine-2,4-diamine] | 5.5 |
| CNc1nc(Nc2cnn(CC3(C)COC3)c2C)ncc1C(F)(F)F [Example 179, N4-methyl-N2-(5-methyl-1-((3-methyloxetan-3-yl)methyl)-1H-pyrazol-4-yl)-5-(trifluoromethyl) pyrimidine-2,4-diamine] | 9 |
| CNc1nc(Nc2cnn(C)c2NC)ncc1C(F)(F)F [Example 194, N4-methyl-N2-(1-methyl-5-(methylamino)-1H-pyrazol-4-yl)-5-(trifluoromethyl) pyrimidine-2,4-diamine] | 52.2 |
| CNc1nc(Nc2cn(Cc3cccnc3)nc2C)ncc1C(F)(F)F [Example 289, N4-Methyl-N2-(3-methyl-1-pyridin-3-ylmethyl-1H-pyrazol-4-yl)-5-trifluoromethyl-pyrimidine-2,4-diamine] | 25 |
| CCNc1nc(Nc2cn(C3CN(C4COC4)C3)nc2C)ncc1C(F)(F)F [Example 182, N4-ethyl-N2-(3-methyl-1-(1-(oxetan-3-yl)azetidin-3-yl)-1H-pyrazol-4-yl)-5-(trifluoromethyl) pyrimidine-2,4-diamine] | 1.5 |
| CCNc1nc(Nc2cnn(C3CCN(C(=O)C4CC4)CC3)c2C)ncc1C(F)(F)F [Example 184, cyclopropyl(4-(4-(4-(ethylamino)-5-(trifluoromethyl)pyrimidin-2-ylamino)-5-methyl-1H-pyrazol-1-yl)piperidin-1-yl)methanone] | 4.7 |
| CNc1nc(Nc2cnn(Cc3ccccn3)c2C)ncc1C(F)(F)F [Example 212, N4-methyl-N2-(5-methyl-1-(pyridin-2-ylmethyl)-1H-pyrazol-4-yl)-5-(trifluoromethyl) pyrimidine-2,4-diamine] | 2.9 |
| CNc1nc(Nc2cn(S(=O)(=O)C3CC3)nc2C)ncc1C(F)(F)F [Example 170, N2-(1-(cyclopropyl-sulfonyl)-3-methyl-1H-pyrazol-4-yl)-N4-methyl-5-(trifluoromethyl) pyrimidine-2,4-diamine] | 2 |
| CNc1nc(Nc2cn(CC(F)(F)F)nc2C)ncc1C(F)(F)F [Example 254, N4-Methyl-N2-[3-methyl-1-(2,2,2-trifluoro-ethyl)-1H-pyrazol-4-yl]-5-trifluoromethyl-pyrimidine-2,4-diamine] | 7.7 |
| CNc1nc(Nc2cnn(-c3ccc(C(=O)N(C)C)cc3)c2C)ncc1C(F)(F)F [Example 156, N,N-dimethyl-4-(5-methyl-4-(4-(methylamino)-5-(trifluoromethyl)pyrimidin-2-ylamino)-1H-pyrazol-1-yl)benzamide] | 0.3 |
| CNc1nc(Nc2cnn(CC(F)(F)F)c2C)ncc1Br [Example 96, 5-bromo-N4-methyl-N2-(5-methyl-1-(2,2,2-trifluoroethyl)-1H-pyrazol-4-yl)pyrimidine-2,4-diamine] | 1.1 |
| CCNc1nc(Nc2cnn(C3CCN(CC4OCCO4)C3)c2C)ncc1C(F)(F)F (stereo not shown) [Example 328, N2-[1-(1-[1,3]Dioxolan-2-ylmethyl-pyrrolidin-3-yl)-5-methyl-1H-pyrazol-4-yl]-N4-ethyl-5-trifluoromethyl-pyrimidine-2,4-diamine] | 0.4 |
| CCNc1nc(Nc2cn(C(C)(C)c3nnc(C)o3)nc2C)ncc1C(F)(F)F [Example 336, N4-ethyl-N2-(3-methyl-1-(2-(5-methyl-1,3,4-oxadiazol-2-yl)propan-2-yl)-1H-pyrazol-4-yl)-5-(trifluorometliyl) pyrimidine-2,4-diamine] | 1.2 |
| CCNc1nc(Nc2cnn(C3CCN(C4COC4)CC3F)c2Cl)ncc1C(F)(F)F (stereo not shown) [Example 306, N2-[5-Chloro-1-(3-fluoro-1-oxetan-3-yl-piperidin-4-yl)-1H-pyrazol-4-yl]-N4-ethyl-5-trifluoromethyl-pyrimidine-2,4-diamine] | 0.6 |
| CCNc1nc(Nc2cn(CCOC)nc2C)ncc1C(F)(F)F [Example 294, N4-Ethyl-N2-[1-(2-methoxy-ethyl)-3-methyl-1H-pyrazol-4-yl]-5-trifluoromethyl-pyrimidine-2,4-diamine] | 1.1 |
